Assay results reported in patent US8486953B2, “Thienopyrimidines for pharmaceutical compositions” (Boehringer Ingelheim International GmbH, priority 2008, dated 2013).

Legend:
[1] = tested on: Mnk2 (Mnk2a or Mnk2b) or Mnk1; settings: cell culture cells transfected with Mnk2 (Mnk2a or Mnk2b) or Mnk1; cited from earlier work
[2] = molecular target: human Mnk2a (Homo sapiens (Human), UniProt Q9HBH9); assay: Mnk2a in vitro kinase assay (indirect fluorescence polarization); format: biochemical
Experimental: (§1) Inhibitory potency of compounds against Mnk1, Mnk2a and other kinases was assessed with assays based on a format known to those skilled in the art as the indirect (competitive) fluorescence polarization. The assay detection system comprises a small fluorophore-labeled phospho-peptide (termed ligand) bound to a phospho-specific antibody. The product generated by the kinase reaction competes with the ligand for antibody binding. Based on the larger molecular volume of the bound ligand, which results in a lower rotation rate in solution, its emitted light has a higher degree of polarization than the one from the free ligand.
(§2) In brief, the open reading frames of human Mnk1 and Mnk2a were amplified from cDNA using the forward/reverse primer pairs
(§3) (utilized restriction sites underlined), respectively, and cloned into the BamHI and SalI sites of the vector pGEX-4T1 (Amersham, Sweden, cat. no. 27-4580-01). These constructs allow prokaryotic expression of Mnk1 or Mnk2a as fusion protein with a N-terminal glutathione S-transferase (GST) tag, referred to as GST-Mnk1 or GST-Mnk2a. The following expression and purification procedure was identical for GST-Mnk1 and GST-Mnk2a, referring in general to GST-Mnk, when not distinguishing between the two isoforms. Expression of GST-Mnk was in E. coli BL21 (Merck Biosciences, Germany, cat. no. 69449). Cells were grown in LB-Bouillon (Merck, Germany, cat. no. 1.10285) supplemented with 100 μg/ml ampicillin (Sigma, Germany, cat. no. A9518) at 37° C. When the culture had reached a density corresponding to an A600 of 0.8, an equal volume of ice cold LB/ampicillin was added, the culture transferred to 25° C. and induced for 4 h with 1 mM isopropyl thiogalactoside (IPTG, Roth, Germany, cat. no. 2316.4). Cells harvested by centrifugation were resuspended in 10 ml lysis buffer (50 mM tris(hydroxymethyl)aminomethane hydrochloride (Tris/HCl, Sigma, Germany, cat. no. T5941) pH 7.5, 300 mM sodium chloride (NaCl, Sigma, Germany, cat. no. S7653), 5% (w/v) glycerol (Sigma, Germany, cat. no. G5516), 3 mM DTT dithiotreitol (DTT, Sigma, Germany, cat. no. D9779)) per gram wet weight cell pellet. Lysates were prepared by disruption of cells with a sonifier and subsequent clearing by centrifugation at 38000 g for 45 min at 4° C.
(§4) The lysate was applied to a GSTPrep FF 16/10 column (Amersham, Sweden, cat. no. 17-5234-01) equilibrated with lysis buffer. Removal of unbound material was with 3 column volumes (CV) lysis buffer. Elution was with 2 CV of elution buffer (50 mM Tris/HCl pH 7.5, 300 mM NaCl, 5% (w/v) glycerol, 20 mM glutathione (Sigma, Germany, cat. no. G4251)). Peak fractions were pooled and the protein transferred into storage buffer (50 mM Tris/HCl pH 7.5, 200 mM NaCl, 0.1 mM ethylene glycol-bis(2-aminoethylether)-N,N,N′,N′-tetraacetic acid (EGTA, Aldrich, Germany, cat. no. 23, 453-2), 1 mM DTT, 10% (w/v) glycerol, 0.5 M sucrose (Sigma, Germany, cat. no. SO389) by gel filtration on a PD10 desalting column (Amersham, Sweden, cat. no. 17-0851-01). Aliquots were shock frozen in liquid nitrogen and stored at −80° C.
(§5) Activation of Mnk1 and Mnk2a was at a concentration of 2.5 μM of either purified GST-Mnk1 or GST-Mnk2a by incubation with 150 nM pre-activated NHis-ERK2 (see ERK2 assay for preparation) and 50 μM adenosine triphosphate (ATP, Sigma, cat. no. A2699) in a buffer comprising 20 mM N-(2-hydroxyethyl)piperazine-N′-(2-ethanesulfonic acid) (HEPES, Fluka, Germany, cat. no 54459)/potassium hydroxide (KOH, Roth, Germany, cat. no 6751.1) pH 7.4, 10 mM magnesium chloride (MgCl2, Sigma, Germany, cat. no. M2670), 0.25 mM DTT, 0.05% (w/v) polyoxyethylene 20 stearylether (Brij 78, Sigma, Germany, cat. no. P4019) (HMDB buffer) for 45 min at 30° C.

[3] = molecular target: human Mnk1 (Homo sapiens (Human), UniProt Q9BUB5); assay: Mnk1 in vitro kinase assay (indirect fluorescence polarization); format: biochemical
Sequence of human Mnk1 (Q9BUB5 other isoform, or with tags, fused parts or gaps): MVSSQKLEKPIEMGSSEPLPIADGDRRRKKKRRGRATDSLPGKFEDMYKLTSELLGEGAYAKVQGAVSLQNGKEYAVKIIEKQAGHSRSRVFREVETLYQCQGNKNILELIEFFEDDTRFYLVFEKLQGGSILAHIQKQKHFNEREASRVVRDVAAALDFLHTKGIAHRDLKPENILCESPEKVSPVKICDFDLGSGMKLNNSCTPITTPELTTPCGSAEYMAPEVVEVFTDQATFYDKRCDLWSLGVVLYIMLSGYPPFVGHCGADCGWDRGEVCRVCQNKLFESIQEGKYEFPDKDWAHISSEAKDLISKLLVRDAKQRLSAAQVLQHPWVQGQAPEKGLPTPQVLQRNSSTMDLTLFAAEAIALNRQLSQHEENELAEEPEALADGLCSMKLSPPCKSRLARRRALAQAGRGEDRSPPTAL
Experimental: as §1, §2, §3, §4, §5

Sequence of human Mnk2a (Q9HBH9 whole entry): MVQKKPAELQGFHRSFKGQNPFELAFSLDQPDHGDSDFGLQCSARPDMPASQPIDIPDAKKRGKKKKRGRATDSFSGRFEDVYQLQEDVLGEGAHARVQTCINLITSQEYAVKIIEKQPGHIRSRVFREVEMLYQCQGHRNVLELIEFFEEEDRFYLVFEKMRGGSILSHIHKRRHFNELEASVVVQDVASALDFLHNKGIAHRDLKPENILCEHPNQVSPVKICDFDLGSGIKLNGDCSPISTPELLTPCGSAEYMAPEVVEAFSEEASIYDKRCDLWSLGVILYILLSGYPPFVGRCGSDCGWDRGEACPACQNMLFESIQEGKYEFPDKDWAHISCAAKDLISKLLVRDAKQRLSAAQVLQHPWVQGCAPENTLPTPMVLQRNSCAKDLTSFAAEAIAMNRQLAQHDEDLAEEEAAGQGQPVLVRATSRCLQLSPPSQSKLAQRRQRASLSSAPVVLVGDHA

Row | Structure (SMILES) | IC50 [2] [nM] | IC50 [3] [nM] | reduction of phosphorylated eIF4E [1]
1 | Nc1ncnc2n[nH]c(Nc3ccc(F)cc3)c12 [CGP57380] | – | – | strong reduction
2 | COCCNC(=O)c1sc2ncnc(Nc3ccc(F)cc3OC3CCOCC3)c2c1C [Example 6, 4-(4-Fluoro-2-(tetrahydro-2H-pyran-4-yloxy)phenylamino)-N-(2-methoxyethyl)-5-methylthieno[2,3-d]pyrimidine-6-carboxamide] | 35 | 180 | –
3 | Cc1c(C(=O)NCCCN(C)C)sc2ncnc(Nc3ccc(C(F)(F)F)nc3OC3CCOCC3)c12 [Example 34, 4-(2-(Tetrahydro-2H-pyran-4-yloxy)-6-(trifluoromethyl)pyridin-3-ylamino)-N-(3-(dimethylamino)propyl)-5-methylthieno[2,3-d]pyrimidine-6-carboxamide] | 560 | 680 | –
4 | Fc1ccc(Nc2ncnc3sc4c(c23)CCNC4)c(OC2CCOCC2)c1 [Example 41, [4-fluoro-2-(tetrahydro-2H-pyran-4-yloxy)-phenyl]-(5,6,7,8-tetrahydro-pyrido[4′,3′:4,5]thieno[2,3-d]pyrimidin-4-yl)-amine] | 110 | 210 | –
5 | Cc1c(C(N)=O)sc2ncnc(Nc3ccc(F)cc3OC3CCN(Cc4ncon4)CC3)c12 [Example 48, 4-(2-(1-((1,2,4-Oxadiazol-3-yl)methyl)piperidin-4-yloxy)-4-fluorophenylamino)-5-methylthieno[2,3-d]pyrimidine-6-carboxamide] | 92 | 460 | –

Continued by falling IC50 [2], values first:

Row | IC50 [2] [nM] | IC50 [3] [nM] | Structure (SMILES) | reduction of phosphorylated eIF4E [1]
6 | 34 | 210 | Cc1c(C(=O)NCCN2CCOCC2)sc2ncnc(Nc3ccc(F)cc3OC3CCOCC3)c12 [Example 10, 4-(4-Fluoro-2-(tetrahydro-2H-pyran-4-yloxy)phenylamino)-5-methyl-N-(2-morpholinoethyl)thieno[2,3-d]pyrimidine-6-carboxamide] | –
7 | 28 | 120 | CCOc1cc(C(N)=O)ccc1Nc1ncnc2sc(C(N)=O)c(C)c12 [Example 2, 4-(4-Carbamoyl-2-ethoxyphenylamino)-5-methylthieno[2,3-d]pyrimidine-6-carboxamide] | –
8 | 27 | 100 | Cc1c(C(=O)NCCCN(C)C)sc2ncnc(Nc3ccc(F)cc3OC3CCOCC3)c12 [Example 9, N-(3-(Dimethylamino)propyl)-4-(4-fluoro-2-(tetrahydro-2H-pyran-4-yloxy)phenyl-amino)-5-methylthieno[2,3-d]pyrimidine-6-carboxamide] | –
9 | 6 | 35 | Cc1c(C(=O)NCCCN(C)C)sc2ncnc(Nc3ccc(F)cc3OC(C)C)c12 [Example 53, N-(3-(Dimethylamino)propyl)-4-(4-fluoro-2-iso-propoxyphenylamino)-5-methylthieno[2,3-d]pyrimidine-6-carboxamide] | –
